Assay results taken from PMC10056986 (Pharmaceuticals, 2023).

Assays:
EV71 Shenzhen/120F1/09 = experiment: microbe, parasite or virus in culture; format: cell-based, human enterovirus 71; settings: Enterovirus A, EV71, RD, read-out: EC50 for Virus
[1] = Cytotoxicity in parallel to antiviral assay; settings: human
[2] = Cytotoxicity in parallel to antiviral assay; settings: African green monkey
HSV-1 GHSV-UL46 = experiment: microbe, parasite or virus in culture; format: cell-based, herpes simplex virus type 1; settings: Human alphaherpesvirus 1, Vero C1008, read-out: EC50 for Virus
HBV = experiment: microbe, parasite or virus in culture; format: cell-based; settings: Hepatitis B virus, HepG2.2.15, read-out: EC50 for Virus
in vitro = settings: human
[3] = test system: Influenza virus A/PR/8/34 (H1N1); experiment: microbe, parasite or virus in culture; format: cell-based; settings: H1N1|PR/8, MDCK, read-out: EC50 (mean ± SD)
MDCK cells = experiment: Cytotoxicity in MDCK cells without viral infection; settings: MDCK, 37 °C
[4] = Cytotoxicity in MDCK cells without viral infection; settings: dog
[5] = test system: influenza A virus WSN/33 (H1N1); set-up: species or system BALB/c mice; settings: mouse, in vivo
Influenza virus B/Lee/40 = experiment: microbe, parasite or virus in culture; format: cell-based; settings: MDCK, read-out: EC50 (mean ± SD)
[6] = test system: Influenza virus A/WSN/33 (H1N1); experiment: microbe, parasite or virus in culture; format: cell-based; settings: MDCK, read-out: EC50 (mean ± SD)
[7] = test system: influenza A virus WSN/33 (H1N1); set-up: species or system BALB/c mice; settings: mouse, in vivo; remark: listed apart in the source
[8] = test system: Influenza virus A/Mal/302/54 (H1N1); experiment: microbe, parasite or virus in culture; format: cell-based; settings: H1N1, MDCK, read-out: EC50 (mean ± SD)
[9] = test system: A/Guangzhou/39715/2014 (H5N6); experiment: microbe, parasite or virus in culture; format: cell-based, avian influenza virus; settings: unidentified influenza virus, H5N6, MDCK, read-out: IC50 (mean ± SD)
A/Anhui/01/2013 (H7N9) = experiment: microbe, parasite or virus in culture; format: cell-based, avian influenza virus; settings: Influenza A virus, H7N9, MDCK, read-out: IC50 (mean ± SD)
A/PR/8/34 (H1N1) = test system: A/PR/8/34 (H1N1); set-up: species or system BALB/c mice; settings: mouse, in vivo
[10] = test system: Influenza virus A/WS/33 (H1N1); experiment: microbe, parasite or virus in culture; format: cell-based; settings: H1N1, MDCK, read-out: EC50 (mean ± SD)
[11] = test system: A/Qingyuan/GIRD01/2017 (H7N9); experiment: microbe, parasite or virus in culture; format: cell-based, avian influenza virus; settings: Influenza A virus, H7N9, MDCK, read-out: IC50 (mean ± SD)
[12] = test system: influenza A virus/California/07/2009 (H1N1); set-up: species or system ferrets; settings: in vivo, po, 25 mg/kg/day
[13] = test system: Influenza virus A/Weiss/43(H1N1); experiment: microbe, parasite or virus in culture; format: cell-based; settings: H1N1, MDCK, read-out: EC50 (mean ± SD)
[14] = Cytotoxicity in parallel to antiviral assay; settings: human; remark: listed apart in the source
HRV 1B = experiment: microbe, parasite or virus in culture; format: cell-based; settings: Human rhinovirus sp., H1-HeLa, read-out: EC50 for Virus

SMILES: CCOC(=O)/C=C/[C@H](C[C@@H]1CCNC1=O)NC(=O)[C@@H](CC(=O)[C@@H](NC(=O)c1cc(C)on1)C(C)C)Cc1ccc(F)cc1 [AG7088, reference compound]
- EC50 (EV71 Shenzhen/120F1/09): 0.012 µM
- CC50 [1]: > 1 µM

SMILES: Nc1nc2c(ncn2COCCO)c(=O)[nH]1 [Acyclovir, reference compound]
- CC50 [2]: > 10 µM
- EC50 (HSV-1 GHSV-UL46): 0.655 µM

SMILES: C=C1[C@H](CO)[C@@H](O)C[C@@H]1n1cnc2c(=O)[nH]c(N)nc21 [Entecavir, reference compound]
- EC50 (HBV): 0.000338 µM
- CC50 (in vitro): > 0.02 µM

SMILES: CCOC(=O)C1=C[C@@H](OC(CC)CC)[C@H](NC(C)=O)[C@@H](N)C1 [Oseltamivir]
- EC50 [3]: 4.89 ± 7.37 µM
- CC50 (MDCK cells): > 100 µM
- CC50 [4]: > 100 µM
- animals died (of n = 8) [5]: five
- day on which body weight of surviving mice began to recover [5]: 9 days
- day on which weight of surviving mice increased gradually [5]: 9th
- mice died (of n = 8) [5]: three
- EC50 (Influenza virus B/Lee/40): 2.94 ± 3.62 µM
- EC50 [6]: 10.1 ± 9.82 µM
- body weight of mice [7]: did not significantly reduce the body weight
- survival rate vs vehicle [7]: could improve the survival rate
- time of death relative to vehicle group [7]: died after 7 h—earlier than in the vehicle group
- EC50 [8]: 1.34 ± 1.92 µM
- IC50 [9]: 1650 µM
- IC50 (A/Anhui/01/2013 (H7N9)): 175 µM
- mortality rate (A/PR/8/34 (H1N1)): 90%
- EC50 [10]: 2.43 ± 1.24 µM
- IC50 [11]: 1690 µM
- viral load in nasal lavage fluid vs vehicle [12]: decreased significantly
- EC50 [13]: 5.62 ± 2.78 µM

SMILES: Cc1cc(CCCOc2c(C)cc(-c3noc(C(F)(F)F)n3)cc2C)on1 [Pleconaril, reference compound]
- CC50 [14]: > 5 µM
- EC50 (HRV 1B): 0.028 µM
